Measurements as given in patent US6221865A, “Inhibitors of protein isoprenyl transferases” (priority 1998, dated 2001).
Structures can show the parent of a compound that is named as a salt.

target: T1, protein farnesyltransferase (Rattus norvegicus, UniProt Q02293+Q04631); assay: Inhibition of farnesyltransferase (scintillation proximity assay, rat brain enzyme, biotin-K Ras B fragment substrate); format: biochemical; details: 1 × 10^-5 M (Table 1)
T1 construct: The enzyme is purified according to Reiss, Y., et al., Cell, 62: 81-88 (1990), utilizing steps one through three; from tissue; host or cells: rat brain
T1 sequence (Q02293 whole entry, the tested form may be a part, one chain of several): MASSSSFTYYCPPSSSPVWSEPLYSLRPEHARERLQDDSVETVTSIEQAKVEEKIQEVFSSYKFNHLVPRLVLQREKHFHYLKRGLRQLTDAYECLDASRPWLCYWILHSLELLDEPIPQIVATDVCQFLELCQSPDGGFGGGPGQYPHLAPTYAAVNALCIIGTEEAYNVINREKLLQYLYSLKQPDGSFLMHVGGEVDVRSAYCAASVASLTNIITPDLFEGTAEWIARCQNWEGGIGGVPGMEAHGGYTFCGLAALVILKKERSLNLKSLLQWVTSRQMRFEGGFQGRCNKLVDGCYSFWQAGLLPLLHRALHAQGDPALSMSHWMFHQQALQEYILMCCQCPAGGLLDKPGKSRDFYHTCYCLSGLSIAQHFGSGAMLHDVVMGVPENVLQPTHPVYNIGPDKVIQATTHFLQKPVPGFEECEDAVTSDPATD
In short: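 Enzyme from rat brain, partly purified (steps one to three), assayed by SPA kit using 0.1 mM final biotin-K Ras B peptide as prenyl acceptor rather than biotin-lamin. Activity given as percent inhibition.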

Row | Compound | % inhibition of farnesyltransferase at 1 × 10^-5 M [%]
1 | CSCC[C@H](NC(=O)c1ccc(NC(=O)Cc2ccccc2[N+](=O)[O-])cc1-c1ccccc1)C(=O)O [Example 757] | 58
2 | CSCC[C@H](NC(=O)c1ccc(CNC(CO)Cc2ccccc2)cc1-c1ccccc1)C(=O)O (some centres unmarked) [Example 714] | 56
3 | CSCC[C@H](NC(=O)c1ccc(CNc2cc(C(=O)O)cc(C(=O)O)c2)cc1-c1ccccc1)C(=O)O [Example 710] | 45
4 | COc1ccc(NCc2ccc(C(=O)N[C@@H](CCSC)C(=O)O)c(-c3ccccc3)c2)cc1 [Example 690] | 61
5 | CCn1cc(NCc2ccc(C(=O)N[C@@H](CCSC)C(=O)O)c(-c3ccccc3)c2)c(=O)n1CC [Example 364] | 69
6 | CSCC[C@H](NC(=O)c1ccc(CNc2cc(C)cc(C)c2)cc1-c1ccccc1)C(=O)O [Example 709] | 55

same assay, conditions: 1 × 10^-6 M (Table 2)

Row | Compound | % inhibition of farnesyltransferase at 1 × 10^-6 M [%]
7 | CCc1nnc(NCc2ccc(C(=O)N[C@@H](CCSC)C(=O)O)c(-c3ccccc3C)c2)s1 [Example 723] | 87
8 | CSCC[C@H](NC(=O)c1ccc(CN(Cc2ccccc2)c2ccccc2C(C)=O)cc1-c1ccccc1C)C(=O)O [Example 844] | 92
9 | CSCC[C@H](NC(=O)c1ccc(CN(CCO)Cc2ccccc2)cc1-c1ccccc1)C(=O)O [Example 515] | 72
10 | CSCC[C@H](NC(=O)c1ccc(NCC2CNCCN2)cc1-c1ccccc1)C(=O)O (some centres unmarked) [Example 286] | 84
11 | CSCC[C@H](NC(=O)c1ccc(CSc2nc(O)cc(Cc3ccccc3)n2)cc1-c1ccccc1C)C(=O)O [Example 744] | 84
12 | CSCC[C@H](NC(=O)c1ccc(CSCc2ccccc2)cc1-c1ccccc1C)C(=O)[O-].[Li+] [Example 554] | 96
13 | CSCC[C@H](NC(=O)c1ccc(CN[C@@H](/C=C\CC(C)C)CC2CCCCC2)cc1-c1ccccc1)C(=O)O [Example 665] | 55
14 | CCSC[C@H](CC1CCCCC1)NCc1ccc(C(=O)N[C@@H](CCSC)C(=O)O)c(-c2ccccc2C)c1 [Example 403] | 99
15 | CSCC[C@H](NC(=O)c1ccc(OC/C=C(\C)CCC=C(C)C)cc1-c1ccccc1C)C(=O)O [Example 546] | 97
16 | CSCC[C@H](NC(=O)c1ccc(CNC(CO)Cc2ccc(Cl)cc2)cc1-c1ccccc1)C(=O)O (some centres unmarked) [Example 662] | 68
17 | CSCC[C@H](NC(=O)c1ccc(CN(CCC#N)Cc2ccccc2)cc1-c1ccccc1)C(=O)O [Example 649] | 86
18 | CSCC[C@H](NC(=O)c1ccc(CN(Cc2ccc(C(F)(F)F)cc2)c2ccccc2)cc1-c1ccccc1C)C(=O)O [Example 782] | 96
19 | CSCC[C@H](NC(=O)c1ccc(CNc2ccc(-c3nc4ccccc4s3)cc2)cc1-c1ccccc1)C(=O)O [Example 703] | 40
20 | CSCC[C@H](NC(=O)c1ccc(NC(=O)Cc2nccs2)cc1-c1ccccc1)C(=O)O [Example 163] | 18
21 | CSCC[C@H](NC(=O)c1ccc(OCCCCOc2ccccc2)cc1-c1ccccc1C)C(=O)O [Example 568] | 93

same assay, conditions: 1 × 10^-7 M (Table 3)

Row | Compound | % inhibition of farnesyltransferase at 1 × 10^-7 M [%]
22 | CSCC[C@H](NC(=O)c1ccc(COCc2ccccc2)cc1-c1ccccc1C)C(=O)NS(=O)(=O)c1ccccc1 [Example 580] | 90
23 | COc1ccc(COCc2ccc(C(=O)N[C@@H](CCSC)C(=O)[O-])c(-c3ccccc3C)c2)cc1.[Li+] [Example 935] | 72
24 | CSCC[C@H](NC(=O)c1ccc(COCCc2ccco2)cc1-c1ccccc1C)C(=O)[O-].[Li+] [Example 531] | 74
25 | CSCC[C@H](NC(=O)c1ccc(COCc2ccc(-c3ccccc3F)o2)cc1-c1ccccc1C)C(=O)[O-].[Li+] [Example 437] | 89
26 | CSCC[C@H](NC(=O)c1ccc(COCc2ccc(-c3ccc(C(F)(F)F)cc3)o2)cc1-c1ccccc1C)C(=O)[O-].[Li+] [Example 445] | 94
27 | N-[4-(2-fluoren-4-ylethyl)-2-(2-methylphenyl)benzoyl]methionine lithium salt [Example 464] | 86
28 | CSCC[C@H](NC(=O)c1ccc(CN[C@H](CSC(C)(C)C)CC2CCCCC2)cc1-c1ccccc1C)C(=O)O [Example 622] | 95
29 | CSCC[C@H](NC(=O)c1ccc(COc2ccc(Oc3ccccc3)cc2)cc1-c1ccccc1C)C(=O)[O-].[Li+] [Example 795] | 87
30 | CCSCC(CC1CCCCC1)N(Cc1ccc(C(=O)N[C@@H](CCSC)C(=O)O)c(-c2ccccc2C)c1)CC(C)C (some centres unmarked) [Example 945] | 80

same assay, conditions: 1 × 10^-8 M (Table 4)

Row | Compound | % inhibition of farnesyltransferase at 1 × 10^-8 M [%]
31 | CCCCC(CCCC)OCc1ccc(C(=O)N[C@@H](CCSC)C(=O)[O-])c(-c2ccccc2C)c1.[Li+] [Example 942] | 58
32 | CSCC[C@H](NC(=O)c1ccc(CO[C@H](CSC(C)(C)C)CC2CCCCC2)cc1-c1ccccc1C)C(=O)O [Example 883] | 91
33 | COc1cccc(CN(Cc2ccc(C(=O)N[C@@H](CCSC)C(=O)O)c(-c3ccccc3C)c2)c2ccccc2)c1 [Example 779] | 70
34 | CSCC[C@H](NC(=O)c1ccc(COCCc2ccc(Cl)cc2Cl)cc1-c1ccccc1C)C(=O)[O-].[Li+] [Example 591] | 82
35 | CSCC[C@H](NC(=O)c1ccc(CN(Cc2ccccc2)c2ccc(C(F)(F)F)cc2)cc1-c1ccccc1C)C(=O)O [Example 853] | 85

same assay, conditions: read-out: % inhibition at 0.01 μM (**); Table 6, ** = 0.01 μM (footnote); title prints 0.01 mM

Row | Compound | inhibition at 0.01 µM [%]
36 | CSCC[C@H](NC(=O)c1ccc(C/C(=C\c2cncs2)COc2cc(F)cc(F)c2)cc1-c1ccccc1C)C(=O)O [Example 1163, N-{4-[E-2-(3,5-diflourophenoxy)methyl-3-(thiazol-5-yl)prop-2-enyl]-2-(2-methylphenyl)benzoyl}methionine Lithium Salt] | 73

same assay, conditions: read-out: % inhibition at 0.1 μM (*); Table 6, * = 0.1 μM (footnote); title prints 0.1 mM

Row | Compound | inhibition at 0.1 µM [%]
37 | CCCCP(=O)(CCCC)Cc1ccc(C(=O)N[C@@H](CCSC)C(=O)O)c(-c2ccccc2C)c1 [Example 1222, N-[4-(Dibutyl(oxophosphinyl)methyl)-2-(2-methylphenyl)benzoyl]methionine] | 89
38 | CSCC[C@H](NC(=O)c1ccc(CC(CCC2CCCCC2)C(=O)OC(C)(C)C)cc1-c1ccccc1C)C(=O)O (some centres unmarked) [Example 1301, N-[4-(2-(2-cyclohexylethyl)t-butylpropion-3-yl)-2-(2-methylphenyl)benzoyl]methionine Lithium Salt] | 97
39 | CSCC[C@H](NC(=O)c1ccc(CN2CCC[C@H]2CN2CCCCC2)cc1-c1ccccc1C)C(=O)O [Example 1125, N-[4-(2-piperidin-1-ylmethylpyrrolidin-1-ylmethyl)-2-(2-methylphenyl)benzoyl]methionine] | 92

same assay, conditions: read-out: % inhibition of farnesyltransferase at 1 × 10^-6 M; 1 × 10^-6 M (Table 2)

Row | Compound | inhibition at 1 µM [%]
40 | CSCC[C@H](NC(=O)c1ccc(S(=O)(=O)NCCC2CCCCC2)cc1-c1ccccc1C)C(=O)O [Example 772, lithium salt] | 79
41 | CSCC[C@H](NC(=O)c1ccc(CN(C2CC2)C2(Cc3ccccc3)CCC2)cc1-c1ccccc1C)C(=O)O [Example 329] | 98
42 | CSCC[C@H](NC(=O)c1ccc(CN(C2CC2)C(C)(C)CC2CCCCC2)cc1-c1ccccc1C)C(=O)O [Example 316] | 63
43 | CSCC[C@H](NC(=O)c1ccc(C=CCc2ccccc2)cc1-c1ccccc1C)C(=O)O (mixture of isomers) [Example 469, N-[4-(3-phenylprop-1-enyl)-2-(2-methylphenyl)benzoyl]methionine (1:1 mixture of olefin isomers)] | 92
44 | CSCC[C@H](NC(=O)c1ccc(CN(C)C(CC2CCCCC2)C(=O)N2CCOCC2)cc1-c1ccccc1C)C(=O)O (some centres unmarked) [Example 302] | 31
45 | CSCC[C@H](NC(=O)c1ccc(CCCc2ccc3ccccc3c2)cc1-c1ccccc1C)C(=O)O [Example 470, N-[4-(3-naphth-2-ylpropyl)-2-(2-methylphenyl)benzoyl]methionine lithium salt] | 95
46 | CSCC[C@H](NC(=O)c1ccc(CN2CCC[C@H]2COCc2ccccc2)cc1-c1ccccc1C)C(=O)O [Example 824, N-[4-(2-benzyloxymethylpyrrolidin-1-ylmethyl)-2-(2-methylphenyl)benzoyl]methionine] | 90
47 | CSCC[C@H](NC(=O)c1ccc(/C=C/c2cnc(Oc3ccccc3)cn2)cc1-c1ccccc1C)C(=O)O [Example 812, lithium salt] | 94
48 | CSCC[C@H](NC(=O)c1ccc(CCc2cccc3ccccc23)cc1-c1ccccc1C)C(=O)O [Example 467, N-[4-(2-naphth-1-ylethyl)-2-(2-methylphenyl)benzoyl]methionine lithium salt] | 97
49 | CSCC[C@H](NC(=O)c1ccc(/C=C/c2cnccn2)cc1-c1ccccc1C)C(=O)O [Example 495, N-[4-(2-pyrazin-2-ylethen-1-yl)-2-(2-methylphenyl)benzoyl]methionine lithium salt] | 95

same assay, conditions: read-out: % inhibition of farnesyltransferase at 1 × 10^-7 M; 1 × 10^-7 M (Table 3)

Row | Compound | inhibition at 0.1 µM [%]
50 | CSCC[C@H](NC(=O)c1ccc(/C=C/c2ccc(Oc3cccc([N+](=O)[O-])c3)cc2)cc1-c1ccccc1C)C(=O)O [Example 861, N-[4-(2-(4-(3-nitrophenoxy)phenyl)ethen-1-yl)-2-(2-methylphenyl)benzoyl]methioziine] | 65
